Where “and” joins values, the source holds several entries; their conditions need not be identical. Equal values may be shown once.
Test system: adult bovine cartilage cells
Test: GAG synthesis (35-sulfate incorporation) in cultured cartilage cells
Assay type: cell-based
Details: 4 hours incubation, individual agent
Experimental: Articular cartilage was resected from human or animal joints aseptically and placed into a large petri dish in a small amount of DMEM/F-12 or F-12. The tissue was diced to 1-2 mm dimensions and transferred to a small culture flask containing 20 mL DMEM or F-12+400 u/mL collagenase. The flask was placed on the shaker and incubated overnight.
The cell digest was repeatedly aspirated to increase release of cells. The cell digest was then placed into a 50 mL sterile centrifuge tube and centrifuged in the Beckman at 1000 RPM for 10 minutes. The medium was discarded by pipette and fresh DMEM/F-12 containing 1% FCS added. Depending on the size of the pellet, about […] medium was added. Cell counts were determined by haemocytometer and the digest made up to a concentration of 100,000 cells/0.2 mL.
To conduct GAG synthesis, 0.2 mL was aliquoted into each well of a 96 well plate using an 8 channel pipetter and the cells allowed to attach for 24 hours. The media was removed and 0.3 mL of fresh 1% FCS media added for 2-3 days. On the day of the experiment, the media was removed and the experimental solutions containing 35-sulfate isotope were added. The incubation was continued for 4 hours. Termination: at the end of the incubation period, the labeling media was removed, the cell layer was rinsed repeatedly with cold 0.3 mL DMEM or F-12 (about 5 times.), and the cell layer was frozen for counting.
The cell layer for both the synthesis experiments were heated at 50 degrees after adding 100 ul 1 N NaOH for a period of 2 hours. 200 ul scintillant was added and the plates were placed in the counter. The data was expressed as CPM/100,000 cells.

Molecule	Indv. Agents: CPM/100,000 cells	Indv. Agents: CPM/100,000 cells (listed as 3% Sam)	Indv. Agents: CPM/100,000 cells (listed as ChS04-H)
C[S+](CC[C@H](N)C(=O)[O-])C[C@H]1O[C@@H](n2cnc3c(N)ncnc32)[C@H](O)[C@@H]1O (some centres unmarked) [1% Sam, S-adenosylmethionine]	123 CPM/100,000 cells	42 CPM/100,000 cells	–
CCCCC/C=C\C/C=C\C/C=C\C/C=C\CCCC(=O)O [AA, Arachadonic Acid]	70 CPM/100,000 cells	–	–
N[C@H]1C(O)O[C@H](CO)[C@@H](O)[C@@H]1O (some centres unmarked) [Glu-H, Glucosamine]	117 CPM/100,000 cells	–	–
Chondroitin [CHSO4-L]	64 CPM/100,000 cells	–	50 CPM/100,000 cells
Collagen	118 CPM/100,000 cells (3×) and 70 CPM/100,000 cells	–	–
Pentosan [10Pentos]	76 CPM/100,000 cells	–	–
